Reference: US20260022142A1, “MACROCYCLIC IMMUNOMODULATORS” (Bristol-Myers Squibb Company, priority 2022, published 2026)
Bridge positions count the residues as written; N and C are the ends. Square brackets hold non-standard residues; d marks the D form. Peptide text beside a SMILES is read from it. * marks the point of attachment. ξ: configuration not given here. Phe(3-CF3) = N[C@@H](Cc1cccc(C(F)(F)F)c1)C(=O)O; Phe(4-COOH) = N[C@@H](Cc1ccc(C(=O)O)cc1)C(=O)O; Phe(4-CH2NH2) = NCc1ccc(C[C@H](N)C(=O)O)cc1; Bip = N[C@@H](Cc1ccc(-c2ccccc2)cc1)C(=O)O; NH(CH2)14COOH = O=C(O)CCCCCCCCCCCCCCN*; Phe(3-Me) = Cc1cccc(C[C@H](N)C(=O)O)c1; Phe(4-F) = N[C@@H](Cc1ccc(F)cc1)C(=O)O; Bta = N[C@@H](Cc1csc2ccccc12)C(=O)O; Val(3-OH) = CC(C)(O)[C@H](N)C(=O)O; hArg = N=C(N)NCCCC[C@H](N)C(=O)O; Cha = N[C@@H](CC1CCCCC1)C(=O)O; Cit = NC(=O)NCCC[C@H](N)C(=O)O; Thr(3ξ) = CC(O)[C@H](N)C(=O)O; 12Ado = NCCCCCCCCCCCC(=O)O; hSer = N[C@@H](CCO)C(=O)O; Carboxymethyl = O=C(O)C*; Orn = NCCC[C@H](N)C(=O)O; Aun = NCCCCCCCCCCC(=O)O; Dab = NCC[C@H](N)C(=O)O; Dap = NC[C@H](N)C(=O)O; AEEA = NCCOCCOCC(=O)O; ξC = NC(CS)C(=O)O

target: T1, PD-1/PD-L1 interaction (PE-labeled human PD-L1-Ig binding to Jurkat cell line over-expressing human PD-1) (Homo sapiens, UniProt Q15116); assay: Jurkat-PD-1 Cell Binding High-Content Screening Assay (CBA); assay type: cell-based; details: Jurkat cell line over-expressing human PD-1; PE-labeled PD-L1-Ig 20 nM final; read-out: Jurkat hPD1-PDL1 IC50
T1 construct: expressed in transfected cells; host or cells: Jurkat
In short: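 Jurkat-hPD-1 cells, DMEM/10% FCS; cpd 2 h 37° C; PE-PD-L1-Ig 20 nM final, 1 h; 4% PFA fix + Hoechst 33342, 3× dPBS wash; high-content imaging read-out.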

T1 sequence (Q15116 25-288): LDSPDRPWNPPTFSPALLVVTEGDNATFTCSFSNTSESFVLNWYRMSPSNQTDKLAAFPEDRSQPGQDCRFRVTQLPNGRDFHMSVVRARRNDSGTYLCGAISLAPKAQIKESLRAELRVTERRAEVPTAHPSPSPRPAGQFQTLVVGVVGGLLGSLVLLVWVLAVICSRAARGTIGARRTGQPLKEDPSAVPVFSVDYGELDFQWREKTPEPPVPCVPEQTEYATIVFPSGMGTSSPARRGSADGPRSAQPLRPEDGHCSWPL

Structure (SMILES) | IC50 [nM]
Cc1cccc(C[C@@H]2NC(=O)[C@H](CC(=O)O)NC(=O)[C@H](Cc3ccc(OCC(=O)O)cc3)NC(=O)[C@H](CN)NC(=O)CSC[C@@H](C(=O)N[C@@H](CCN)C(=O)NCCOCCOCC(=O)NCCCCCCCCCCC(=O)O)NC(=O)[C@H](CCCN)NC(=O)[C@H](C(C)C)NC(=O)[C@H](CC3CCCCC3)NC(=O)[C@H](CCN)NC(=O)[C@@H](CC(C)C)NC(=O)[C@H](CCCN)NC(=O)[C@H](Cc3ccc(O)cc3)NC(=O)[C@H](Cc3ccc(-c4ccccc4)cc3)NC(=O)[C@H](Cc3ccc(O)cc3)NC2=O)c1 [Compound 2576] ({CH2CO}-[Dap]Y(Carboxymethyl)D[Phe(3-Me)]Y[Bip]Y[Orn][dL][Dab][Cha]V[Orn]C[Dab][AEEA][Aun]-OH; thioether N-14) | 10.4
Cc1cccc(C[C@@H]2NC(=O)[C@H](CC(=O)O)NC(=O)[C@H](Cc3ccc(OCC(=O)O)cc3)NC(=O)[C@H](CCCNC(=N)N)NC(=O)CSC[C@@H](C(=O)N[C@@H](CCN)C(=O)NCCCCCCCCCCC(=O)O)NC(=O)[C@@H](CCC(N)=O)NC(=O)[C@H](C(C)C)NC(=O)[C@H](CC3CCCCC3)NC(=O)[C@H](CCN)NC(=O)[C@@H](CC(C)C)NC(=O)[C@H](CCN)NC(=O)[C@H](CCCNC(N)=O)NC(=O)[C@H](Cc3ccc(-c4ccccc4)cc3)NC(=O)[C@H](C(C)C)NC2=O)c1 [Compound 2820] ({CH2CO}-RY(Carboxymethyl)D[Phe(3-Me)]V[Bip][Cit][Dab][dL][Dab][Cha]V[dQ]C[Dab][Aun]-OH; thioether N-14) | 23.9
Cc1cccc(C[C@@H]2NC(=O)[C@H](CC(=O)O)NC(=O)[C@H](Cc3ccc(OCC(=O)O)cc3)NC(=O)[C@H](CN)NC(=O)CSC[C@@H](C(=O)N[C@@H](CCN)C(=O)NCCCCCCCCCCC(=O)O)NC(=O)[C@H](CO)NC(=O)[C@H](C(C)C)NC(=O)[C@H](CC3CCCCC3)NC(=O)[C@H](CCN)NC(=O)[C@@H](CC(C)C)NC(=O)[C@H](CCCN)NC(=O)[C@H](Cc3ccc(OCC(=O)O)cc3)NC(=O)[C@H](Cc3ccc(-c4ccccc4)cc3)NC(=O)[C@H](Cc3ccc(OCC(=O)O)cc3)NC2=O)c1 [Compound 2084] ({CH2CO}-[Dap]Y(Carboxymethyl)D[Phe(3-Me)]Y(Carboxymethyl)[Bip]Y(Carboxymethyl)[Orn][dL][Dab][Cha]VSC[Dab][Aun]-OH; thioether N-14) | 12.6
Cc1cccc(C[C@@H]2NC(=O)[C@H](CC(=O)O)NC(=O)[C@H](Cc3ccc(OCC(=O)O)cc3)NC(=O)[C@H](CN)NC(=O)CSCC(C(=O)NCCOCCOCC(=O)NCCCCCCCCCCC(=O)O)NC(=O)[C@H](CN)NC(=O)[C@H](C(C)C)NC(=O)[C@H](CC3CCCCC3)NC(=O)[C@H](CCN)NC(=O)[C@@H](CC(C)C)NC(=O)[C@H](CCCN)NC(=O)[C@H](CCCNC(N)=O)NC(=O)[C@H](Cc3ccc(-c4ccccc4)cc3)NC(=O)[C@H](C(C)C)NC2=O)c1 (stereo partly drawn) [Compound 2645] ({CH2CO}-[Dap]Y(Carboxymethyl)D[Phe(3-Me)]V[Bip][Cit][Orn][dL][Dab][Cha]V[Dap][ξC][AEEA][Aun]-OH; thioether N-14) | 15.4
Cc1cccc(C[C@@H]2NC(=O)[C@H](CC(=O)O)NC(=O)[C@H](Cc3ccc(OCC(=O)O)cc3)NC(=O)[C@H](CCCCNC(=N)N)NC(=O)CSC[C@@H](C(=O)N[C@@H](CCCN)C(=O)N[C@@H](CO)C(=O)NCCCCCCCCCCCC(=O)O)NC(=O)[C@H](C(C)O)NC(=O)[C@H](CCO)NC(=O)[C@H](CC3CCCCC3)NC(=O)[C@H](CCN)NC(=O)[C@@H](CC(C)C)NC(=O)[C@H](CCCN)NC(=O)[C@H](CCCNC(=N)N)NC(=O)[C@H](Cc3ccc(-c4ccccc4)cc3)NC(=O)[C@H](C(C)C)NC2=O)c1 (stereo partly drawn) [Compound 3574] ({CH2CO}-[hArg]Y(Carboxymethyl)D[Phe(3-Me)]V[Bip]R[Orn][dL][Dab][Cha][hSer][Thr(3ξ)]C[Orn]S[12Ado]-OH; thioether N-14) | 27
COC[C@@H]1NC(=O)CSC[C@@H](C(=O)N[C@@H](CCN)C(=O)NCCCCCCCCCCCCCCC(=O)O)NC(=O)[C@H](CO)NC(=O)[C@H](C(C)(C)O)NC(=O)[C@H](CC2CCCCC2)NC(=O)[C@H](CCN)NC(=O)[C@@H](CC(C)C)NC(=O)[C@H](CCCN)NC(=O)[C@H](Cc2ccc(C(=O)O)cc2)NC(=O)[C@H](Cc2ccc(-c3ccccc3)cc2)NC(=O)[C@H](Cc2ccc(C(=O)O)cc2)NC(=O)[C@H](Cc2cccc(C(F)(F)F)c2)NC(=O)[C@H](CC(=O)O)NC(=O)[C@H](Cc2ccc(OCC(=O)O)cc2)NC1=O [Compound 2908] ({CH2CO}-S(Me)Y(Carboxymethyl)D[Phe(3-CF3)][Phe(4-COOH)][Bip][Phe(4-COOH)][Orn][dL][Dab][Cha][Val(3-OH)]SC[Dab]-{NH(CH2)14COOH}; thioether N-14) | 541
Cc1cccc(C[C@@H]2NC(=O)[C@H](CC(=O)O)NC(=O)[C@H](Cc3ccc(OCC(=O)O)cc3)NC(=O)[C@H](CCCNC(=N)N)NC(=O)CSC[C@@H](C(=O)N[C@@H](CCN)C(=O)NCCCCCCCCCCC(=O)O)NC(=O)[C@H](C(C)O)NC(=O)[C@H](C(C)C)NC(=O)[C@H](CC3CCCCC3)NC(=O)[C@H](CCN)NC(=O)[C@@H](CC(C)C)NC(=O)[C@H](CCCN)NC(=O)[C@H](Cc3ccc(C(=O)O)cc3)NC(=O)[C@H](Cc3ccc(-c4ccccc4)cc3)NC(=O)[C@H](Cc3ccc(C(=O)O)cc3)NC2=O)c1 (stereo partly drawn) [Compound 3491] ({CH2CO}-RY(Carboxymethyl)D[Phe(3-Me)][Phe(4-COOH)][Bip][Phe(4-COOH)][Orn][dL][Dab][Cha]V[Thr(3ξ)]C[Dab][Aun]-OH; thioether N-14) | 11.4
Cc1cccc(C[C@@H]2NC(=O)[C@H](CC(=O)O)NC(=O)[C@H](Cc3ccc(OCC(=O)O)cc3)NC(=O)[C@H](CN)NC(=O)CSC[C@@H](C(=O)N[C@@H](CCN)C(=O)NCCOCCOCC(=O)NCCCCCCCCCCC(=O)O)NC(=O)[C@H](CCCN)NC(=O)[C@H](C(C)C)NC(=O)[C@H](CC3CCCCC3)NC(=O)[C@H](CCN)NC(=O)[C@@H](CC(C)C)NC(=O)[C@H](CCCN)NC(=O)[C@H](Cc3ccc(O)cc3)NC(=O)[C@H](Cc3ccc(-c4ccccc4)cc3)NC(=O)[C@H](Cc3ccc(CN)cc3)NC2=O)c1 [Compound 2067] ({CH2CO}-[Dap]Y(Carboxymethyl)D[Phe(3-Me)][Phe(4-CH2NH2)][Bip]Y[Orn][dL][Dab][Cha]V[Orn]C[Dab][AEEA][Aun]-OH; thioether N-14) | 53.2

More lines, now with the values ahead:

IC50 [nM] | Structure (SMILES)
41 | CC(C)C[C@H]1NC(=O)[C@H](CCCN)NC(=O)[C@H](C(C)C)NC(=O)[C@H](Cc2ccc(-c3ccccc3)cc2)NC(=O)[C@H](C(C)C)NC(=O)[C@H](Cc2csc3ccccc23)NC(=O)[C@H](CC(=O)O)NC(=O)[C@H](Cc2ccc(OCC(=O)O)cc2)NC(=O)[C@H](CCCCNC(=N)N)NC(=O)CSC[C@@H](C(=O)N[C@@H](CCCN)C(=O)NCCCCCCCCCCC(=O)O)NC(=O)[C@H](CO)NC(=O)[C@H](C(C)C)NC(=O)[C@H](CC2CCCCC2)NC(=O)[C@H](CCN)NC1=O [Compound 3067] ({CH2CO}-[hArg]Y(Carboxymethyl)D[Bta]V[Bip]V[Orn][dL][Dab][Cha]VSC[Orn][Aun]-OH; thioether N-14)
5 | Cc1cccc(C[C@@H]2NC(=O)[C@H](CC(=O)O)NC(=O)[C@H](Cc3ccc(OCC(=O)O)cc3)NC(=O)[C@H](CCCNC(=N)N)NC(=O)CSC[C@@H](C(=O)N[C@@H](CCN)C(=O)NCCCCCCCCCCC(=O)O)NC(=O)[C@H](CCCN)NC(=O)[C@H](C(C)(C)O)NC(=O)[C@H](CC3CCCCC3)NC(=O)[C@H](CCN)NC(=O)[C@@H](CC(C)C)NC(=O)[C@H](CCCN)NC(=O)[C@H](Cc3ccc(OCC(=O)O)cc3)NC(=O)[C@H](Cc3ccc(-c4ccccc4)cc3)NC(=O)[C@H](Cc3ccc(OCC(=O)O)cc3)NC2=O)c1 [Compound 2849] ({CH2CO}-RY(Carboxymethyl)D[Phe(3-Me)]Y(Carboxymethyl)[Bip]Y(Carboxymethyl)[Orn][dL][Dab][Cha][Val(3-OH)][Orn]C[Dab][Aun]-OH; thioether N-14)
21.9 | Cc1cccc(C[C@@H]2NC(=O)[C@H](CC(=O)O)NC(=O)[C@H](Cc3ccc(OCC(=O)O)cc3)NC(=O)[C@H](C(C)O)NC(=O)CSC[C@@H](C(=O)N[C@@H](CCN)C(=O)NCCCCCCCCCCC(=O)O)NC(=O)[C@H](CO)NC(=O)[C@H](Cc3cnc[nH]3)NC(=O)[C@H](CC3CCCCC3)NC(=O)[C@H](CCN)NC(=O)[C@@H](CC(C)C)NC(=O)[C@H](CCCN)NC(=O)[C@H](Cc3ccc(OCC(=O)O)cc3)NC(=O)[C@H](Cc3ccc(-c4ccccc4)cc3)NC(=O)[C@H](Cc3ccc(C(=O)O)cc3)NC2=O)c1 (stereo partly drawn) [Compound 3704] ({CH2CO}-[Thr(3ξ)]Y(Carboxymethyl)D[Phe(3-Me)][Phe(4-COOH)][Bip]Y(Carboxymethyl)[Orn][dL][Dab][Cha]HSC[Dab][Aun]-OH; thioether N-14)
19.6 | CC(C)C[C@H]1NC(=O)[C@H](CCCN)NC(=O)[C@H](Cc2ccc(O)cc2)NC(=O)[C@H](Cc2ccc(-c3ccccc3)cc2)NC(=O)[C@H](C(C)C)NC(=O)[C@H](Cc2ccc(F)cc2)NC(=O)[C@H](CC(=O)O)NC(=O)[C@H](Cc2ccc(OCC(=O)O)cc2)NC(=O)[C@H](CN)NC(=O)CSC[C@@H](C(=O)N[C@@H](CCN)C(=O)NCCOCCOCC(=O)NCCCCCCCCCCC(=O)O)NC(=O)[C@H](CCCN)NC(=O)[C@H](C(C)C)NC(=O)[C@H](CC2CCCCC2)NC(=O)[C@H](CCN)NC1=O [Compound 1294] ({CH2CO}-[Dap]Y(Carboxymethyl)D[Phe(4-F)]V[Bip]Y[Orn][dL][Dab][Cha]V[Orn]C[Dab][AEEA][Aun]-OH; thioether N-14)
11.3 | CC(C)C[C@H]1NC(=O)[C@H](CCCN)NC(=O)[C@H](C(C)C)NC(=O)[C@H](Cc2ccc(-c3ccccc3)cc2)NC(=O)[C@H](C(C)C)NC(=O)[C@H](Cc2c[nH]c3ccccc23)NC(=O)[C@H](CC(=O)O)NC(=O)[C@H](Cc2ccc(OCC(=O)O)cc2)NC(=O)[C@H](C(C)O)NC(=O)CSC[C@@H](C(=O)N[C@@H](C)C(=O)NCCOCCOCC(=O)N[C@@H](CCCN)C(=O)NCCCCCCCCCCC(=O)O)NC(=O)[C@H](C(C)O)NC(=O)[C@H](C(C)C)NC(=O)[C@H](CC2CCCCC2)NC(=O)[C@H](Cc2c[nH]cn2)NC1=O (stereo partly drawn) [Compound 3033] ({CH2CO}-[Thr(3ξ)]Y(Carboxymethyl)DWV[Bip]V[Orn][dL]H[Cha]V[Thr(3ξ)]CA[AEEA][Orn][Aun]-OH; thioether N-14)
